Source: ChEMBL document CHEMBL3885861, “Open TG-GATES”

Species: Rattus norvegicus
Assay: Open TG-GATES - Regimen: Daily Repeat
Format: toxicity, organism-based, Sprague-Dawley
Design: regimen Daily Repeat, gender Male, age 6 weeks
Settings: in vivo, po, 100 mg/kg, route gavage, dose level Low; for APTT / Bas / Eos / Fbg / Hb / Ht / Lym / MCH / MCHC / MCV / Mono / Neu / PT / Plat / RBC / Ret / WBC: tissue Blood; for KIDNEY_L / KIDNEY_R / KIDNEY_TOTAL: tissue Kidney; for LIVER: tissue Liver; for A/G / ALP / ALT / AST / BUN / CRE / Ca / Cl / DBIL / GLC / IP / K / LDH / Na / PL / RALB / TBIL / TC / TG / TP / gamma-GTP: tissue Plasma

In the case of `CN(C)[C@@H]1C(O)=C(C(N)=O)C(=O)[C@@]2(O)C(O)=C3C(=O)c4c(O)cccc4[C@@](C)(O)[C@H]3C[C@@H]12` [TETRACYCLINE], the TERMINAL_BW (72 h, time 3 day) was 197.6 g, the APTT (72 h, time 3 day) was 16.3 s and the Bas (72 h, time 3 day) was 0%. The Eos (72 h, time 3 day) was 0.8%, the Fbg (72 h, time 3 day) was 225.6 mg/dL and the Hb (72 h, time 3 day) was 13.2 g/dL. For the same compound, the Ht (72 h, time 3 day) was 39.6%, the Lym (72 h, time 3 day) was 85% and the MCH (72 h, time 3 day) was 21.7 pg. It also gave an MCHC (72 h, time 3 day) of 33.4%, an MCV (72 h, time 3 day) of 65.1 fL and a Mono (72 h, time 3 day) of 5.2%. It also gave a Neu (72 h, time 3 day) of 9%, a PT (72 h, time 3 day) of 12.1 s and a Plat (72 h, time 3 day) of 103.9 x10_4/uL. For the same compound, the RBC (72 h, time 3 day) was 608.6 x10_4/ul, the Ret (72 h, time 3 day) was 7.9% and the WBC (72 h, time 3 day) was 100.3 x10_2/uL. The KIDNEY_L (72 h, time 3 day) was 0.9 g, the KIDNEY_R (72 h, time 3 day) was 0.9 g and the KIDNEY_TOTAL (72 h, time 3 day) was 1.8 g. It also gave an LIVER (72 h, time 3 day) of 9.3 g, an A/G (72 h, time 3 day) of 2.1 and an ALP (72 h, time 3 day) of 900.4 IU/L. For the same compound, the ALT (72 h, time 3 day) was 40.6 IU/L, the AST (72 h, time 3 day) was 73.4 IU/L and the BUN (72 h, time 3 day) was 16.8 mg/dL. For the same compound, the CRE (72 h, time 3 day) was 0.6 mg/dL, the Ca (72 h, time 3 day) was 11.2 mg/dL and the Cl (72 h, time 3 day) was 106.4 meq/L. For the same compound, the DBIL (72 h, time 3 day) was 0 mg/dL, the GLC (72 h, time 3 day) was 195.6 mg/dL and the IP (72 h, time 3 day) was 9 mg/dL. It also gave a K (72 h, time 3 day) of 4.8 meq/L, an LDH (72 h, time 3 day) of 134.4 IU/L and a Na (72 h, time 3 day) of 140 meq/L. The PL (72 h, time 3 day) was 145.2 mg/dL, the RALB (72 h, time 3 day) was 3.9 g/dL and the TBIL (72 h, time 3 day) was 0.3 mg/dL. It also gave a TC (72 h, time 3 day) of 86.2 mg/dL, a TG (72 h, time 3 day) of 48.8 mg/dL and a TP (72 h, time 3 day) of 5.7 g/dL. The gamma-GTP (72 h, time 3 day) was 0.8 IU/L, the TERMINAL_BW ([…], time 7 day) was 227.4 g and the TERMINAL_BW ([…], time 14 day) was 271.9 g. For the same compound, the TERMINAL_BW ([…], time 28 day) was 346.9 g, the APTT ([…], time 7 day) was 16.7 s and the Bas ([…], time 7 day) was 0%. For the same compound, the Eos ([…], time 7 day) was 1%, the Fbg ([…], time 7 day) was 241 mg/dL and the Hb ([…], time 7 day) was 13.5 g/dL. It also gave a Ht ([…], time 7 day) of 40.2%, a Lym ([…], time 7 day) of 85.2% and an MCH ([…], time 7 day) of 21 pg. It also gave an MCHC ([…], time 7 day) of 33.6%, an MCV ([…], time 7 day) of 62.3 fL and a Mono ([…], time 7 day) of 6.2%. It also gave a Neu ([…], time 7 day) of 8%, a PT ([…], time 7 day) of 12 s and a Plat ([…], time 7 day) of 101.8 x10_4/uL. For the same compound, the RBC ([…], time 7 day) was 645.8 x10_4/ul, the Ret ([…], time 7 day) was 6.6% and the WBC ([…], time 7 day) was 114 x10_2/uL. The APTT ([…], time 14 day) was 16.5 s, the Bas ([…], time 14 day) was 0% and the Eos ([…], time 14 day) was 0.6%. It also gave a Fbg ([…], time 14 day) of 229.6 mg/dL, a Hb ([…], time 14 day) of 13.9 g/dL and a Ht ([…], time 14 day) of 41.7%. The Lym ([…], time 14 day) was 91.2%, the MCH ([…], time 14 day) was 20.9 pg and the MCHC ([…], time 14 day) was 33.5%. The MCV ([…], time 14 day) was 62.5 fL, the Mono ([…], time 14 day) was 2.4% and the Neu ([…], time 14 day) was 6.2%. It also gave a PT ([…], time 14 day) of 11.7 s, a Plat ([…], time 14 day) of 108.7 x10_4/uL and an RBC ([…], time 14 day) of 667.2 x10_4/ul. It also gave a Ret ([…], time 14 day) of 5.5%, a WBC ([…], time 14 day) of 180.6 x10_2/uL and an APTT ([…], time 28 day) of 17.5 s. The Bas ([…], time 28 day) was 0%, the Eos ([…], time 28 day) was 1% and the Fbg ([…], time 28 day) was 230.2 mg/dL. For the same compound, the Hb ([…], time 28 day) was 14.8 g/dL, the Ht ([…], time 28 day) was 44.5% and the Lym ([…], time 28 day) was 90%. For the same compound, the MCH ([…], time 28 day) was 19 pg, the MCHC ([…], time 28 day) was 33.4% and the MCV ([…], time 28 day) was 57.1 fL. It also gave a Mono ([…], time 28 day) of 3.8%, a Neu ([…], time 28 day) of 5.2% and a PT ([…], time 28 day) of 12.1 s. The Plat ([…], time 28 day) was 81 x10_4/uL, the RBC ([…], time 28 day) was 780 x10_4/ul and the Ret ([…], time 28 day) was 3.2%. It also gave a WBC ([…], time 28 day) of 163.8 x10_2/uL, a KIDNEY_L ([…], time 7 day) of 1 g and a KIDNEY_R ([…], time 7 day) of 1.1 g. For the same compound, the KIDNEY_TOTAL ([…], time 7 day) was 2.1 g, the KIDNEY_L ([…], time 14 day) was 1.1 g and the KIDNEY_R ([…], time 14 day) was 1.1 g. It also gave a KIDNEY_TOTAL ([…], time 14 day) of 2.2 g, a KIDNEY_L ([…], time 28 day) of 1.2 g and a KIDNEY_R ([…], time 28 day) of 1.2 g. For the same compound, the KIDNEY_TOTAL ([…], time 28 day) was 2.4 g, the LIVER ([…], time 7 day) was 11.4 g and the LIVER ([…], time 14 day) was 11.8 g. The LIVER ([…], time 28 day) was 13.6 g, the A/G ([…], time 7 day) was 2.1 and the ALP ([…], time 7 day) was 738 IU/L. The ALT ([…], time 7 day) was 37.3 IU/L, the AST ([…], time 7 day) was 71 IU/L and the BUN ([…], time 7 day) was 19.7 mg/dL. It also gave a CRE ([…], time 7 day) of 0.6 mg/dL, a Ca ([…], time 7 day) of 11.4 mg/dL and a Cl ([…], time 7 day) of 105 meq/L. It also gave a DBIL ([…], time 7 day) of 0.0033 mg/dL, a GLC ([…], time 7 day) of 181.3 mg/dL and an IP ([…], time 7 day) of 9.9 mg/dL. The K ([…], time 7 day) was 5 meq/L, the LDH ([…], time 7 day) was 105.7 IU/L and the Na ([…], time 7 day) was 140 meq/L. It also gave a PL ([…], time 7 day) of 164.7 mg/dL, an RALB ([…], time 7 day) of 3.9 g/dL and a TBIL ([…], time 7 day) of 0.3 mg/dL. The TC ([…], time 7 day) was 86.3 mg/dL, the TG ([…], time 7 day) was 87.7 mg/dL and the TP ([…], time 7 day) was 5.9 g/dL. It also gave a gamma-GTP ([…], time 7 day) of 1.7 IU/L, an A/G ([…], time 14 day) of 2.3 and an ALP ([…], time 14 day) of 983.4 IU/L. The ALT ([…], time 14 day) was 35.8 IU/L, the AST ([…], time 14 day) was 66.6 IU/L and the BUN ([…], time 14 day) was 17.2 mg/dL. For the same compound, the CRE ([…], time 14 day) was 0.6 mg/dL, the Ca ([…], time 14 day) was 10.9 mg/dL and the Cl ([…], time 14 day) was 104.4 meq/L. The DBIL ([…], time 14 day) was 0.002 mg/dL, the GLC ([…], time 14 day) was 177 mg/dL and the IP ([…], time 14 day) was 8.3 mg/dL. For the same compound, the K ([…], time 14 day) was 4.6 meq/L, the LDH ([…], time 14 day) was 79.2 IU/L and the Na ([…], time 14 day) was 141 meq/L. It also gave a PL ([…], time 14 day) of 149.6 mg/dL, an RALB ([…], time 14 day) of 4.1 g/dL and a TBIL ([…], time 14 day) of 0.4 mg/dL. It also gave a TC ([…], time 14 day) of 71 mg/dL, a TG ([…], time 14 day) of 107.4 mg/dL and a TP ([…], time 14 day) of 5.9 g/dL. The gamma-GTP ([…], time 14 day) was 2.6 IU/L, the A/G ([…], time 28 day) was 1.7 and the ALP ([…], time 28 day) was 765.4 IU/L. For the same compound, the ALT ([…], time 28 day) was 30.2 IU/L, the AST ([…], time 28 day) was 61.8 IU/L and the BUN ([…], time 28 day) was 19.8 mg/dL. The CRE ([…], time 28 day) was 0.6 mg/dL, the Ca ([…], time 28 day) was 10.8 mg/dL and the Cl ([…], time 28 day) was 107.2 meq/L. The DBIL ([…], time 28 day) was 0.032 mg/dL, the GLC ([…], time 28 day) was 173.8 mg/dL and the IP ([…], time 28 day) was 7.5 mg/dL. For the same compound, the K ([…], time 28 day) was 4.2 meq/L, the LDH ([…], time 28 day) was 88.2 IU/L and the Na ([…], time 28 day) was 141.4 meq/L. For the same compound, the PL ([…], time 28 day) was 154 mg/dL, the RALB ([…], time 28 day) was 3.8 g/dL and the TBIL ([…], time 28 day) was 0.3 mg/dL. It also gave a TC ([…], time 28 day) of 73.8 mg/dL, a TG ([…], time 28 day) of 141.8 mg/dL and a TP ([…], time 28 day) of 6.2 g/dL. It also gave a gamma-GTP ([…], time 28 day) of 1.2 IU/L.
